Results: US7795240B1, “Nonreducing beta-glucan derivative” (Asahi Kasei Chemicals Corporation, priority 2003, dated 2010)

How the values were obtained:
Type in all cases: physicochemical
[1] = hardness of molded cylindrical product (Schleuniger hardness tester type 6D)
Procedure: (§1) The hardness of the molded cylindrical product thus obtained was measured by a Schleuniger hardness tester type 6D (Trademark, manufactured by FREUND Corporation). More specifically, a load pressure was applied to the molded cylindrical product or a tablet in the direction of the diameter to break it. The weight at the moment was measured. The hardness was represented by an average value of 10 samples. Furthermore, the disintegration time of the molded cylindrical product was determined in accordance with a general test method, a disintegration test method for tablets specified in the Japanese Pharmacopeia, 14th revision, by use of a disintegration tester (Toyama Sangyo Co., Ltd., Trade name: NT-40HS type with a disk), at 37° C. in pure water. The disintegration time was represented by an average of 6 tablets

[2] = storage stability test of an equivalent mixture with L-arginine (degree of whiteness, coloration); conditions: for appearance (color) after storage / decrease ratio in degree of whiteness: 40° C., 2 weeks; for appearance (color) after storage / decrease ratio in degree of whiteness / degree of whiteness after the test: 75% RH, airtight; for degree of whiteness after the test: after 2 weeks at 40° C.; for degree of whiteness at the onset: at onset/initiation of the storage test
From the text: In a β-glucan derivative according to the present invention, a non-reducing end needs not to be bound to all reducing ends. A non-reducing end may be bound to reducing ends to the extent that an active ingredient such as a medicament or the like having an amino group is stably present. The conversion rate of a reducing end of the β-glucan into a non-reducing end is preferably 0.1 mol % or more. Whether an active ingredient is present in a stable state can be readily checked by an observation based on degree of coloration in a storage stability test in a condition that is performed by mixing an active ingredient and a β-glucan derivative in equivalent amounts and stored the mixture at 40° C. under 75%. Since it has a reducing end, β-glucan is known to initiate the Maillard reaction with an active ingredient having a terminal amino group to form an amino-carbonyl bond and produce color. However, a β-glucan derivative according to the present invention has an advantageous effect in that since the reducing end is inactivated by a non-reducing sugar, no coloring reaction takes place. The effect of the present invention is particularly effective for an active ingredient having a primary amine.
Whether fructose was bound was confirmed based on an increase of a peak in a mass spectrum and a storage stability test of an equivalent mixture of the obtained transglucosylated product and L-arginine contained at 40° C. and 75% RH, airtight for 2 weeks. A decrease ratio in degree of whiteness was 2% (it was 99% at the onset and 97% after the test).

[3] = disintegration time of molded cylindrical product (Japanese Pharmacopeia disintegration test); conditions: 37° C., pure water
Procedure: as §1

hardness of the molded cylindrical product ([1]; compression pressure 35 kN) [N] | disintegration time of the molded cylindrical product ([3]; compression pressure 35 kN) [s] | Substance | appearance (color) after storage [2] | decrease ratio in degree of whiteness [2] [%] | degree of whiteness after the test [2] [%] | degree of whiteness at the onset [2] [%] | hardness of the molded cylindrical product ([1]; compressed at 25 kN, φ8 mm, average of 10 samples) [N] | disintegration time of the molded cylindrical product ([3]; compressed at 25 kN, with disk, average of 6) [s]
80 | 300 | transglucosylated cellobiose [Comparative Example 2] | White color in appearance was maintained | 3 | 96 | 99 |  | 
 |  | transglucosylated cellotriose [Example 1] | White color in appearance was maintained | 2 | 97 | 99 | 70 | 58
